Results reported in paper PMC4427492, “The Repellent DEET Potentiates Carbamate Effects via Insect Muscarinic Receptor Interactions: An Alternative Strategy to Control Insect Vector-Borne Diseases” (PLoS ONE, 2015).

How the values were obtained:
[1] = target: T1, human M3 muscarinic acetylcholine receptor (hM3 mAChR) (Homo sapiens, UniProt P20309); experiment: [3H]NMS radioligand displacement; also antagonism of CCh-induced calcium mobilization; type: binding
T1 construct: gene CHRM3; membranes of CHO cells stably expressing human M3

[2] = target: T2, human M1 muscarinic acetylcholine receptor (hM1 mAChR) (Homo sapiens, UniProt P11229); experiment: as above; type: binding
T2 construct: gene CHRM1; membranes of CHO cells stably expressing human M1
T2 sequence (P11229 1-460): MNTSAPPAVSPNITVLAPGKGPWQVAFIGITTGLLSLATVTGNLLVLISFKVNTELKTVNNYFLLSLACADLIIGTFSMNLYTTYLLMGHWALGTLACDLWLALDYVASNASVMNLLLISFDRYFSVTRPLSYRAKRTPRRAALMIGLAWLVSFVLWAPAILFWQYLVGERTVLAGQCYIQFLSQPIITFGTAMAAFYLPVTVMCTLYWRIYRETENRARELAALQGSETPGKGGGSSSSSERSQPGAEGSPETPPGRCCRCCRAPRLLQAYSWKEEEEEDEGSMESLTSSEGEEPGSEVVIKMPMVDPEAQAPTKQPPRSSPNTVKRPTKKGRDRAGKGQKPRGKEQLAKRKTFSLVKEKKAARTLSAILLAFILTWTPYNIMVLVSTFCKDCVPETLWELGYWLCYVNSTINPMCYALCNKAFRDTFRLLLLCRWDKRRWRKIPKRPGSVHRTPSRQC
Description: [3H]NMS radioligand displacement; also antagonism of CCh-induced calcium mobilization on human M1 muscarinic acetylcholine receptor (hM1 mAChR) | DEET displaced the [^3H]N-Methyl Scopolamine (NMS) binding from M1 and M3 mAChRs but only in the millimolar range

[3] = test system: acetylcholinesterase (AChE); experiment: Ellman spectrophotometric AChE activity assay on DUM neuron suspension; type: cell-based, Periplaneta americana

T1 sequence (P20309 whole entry): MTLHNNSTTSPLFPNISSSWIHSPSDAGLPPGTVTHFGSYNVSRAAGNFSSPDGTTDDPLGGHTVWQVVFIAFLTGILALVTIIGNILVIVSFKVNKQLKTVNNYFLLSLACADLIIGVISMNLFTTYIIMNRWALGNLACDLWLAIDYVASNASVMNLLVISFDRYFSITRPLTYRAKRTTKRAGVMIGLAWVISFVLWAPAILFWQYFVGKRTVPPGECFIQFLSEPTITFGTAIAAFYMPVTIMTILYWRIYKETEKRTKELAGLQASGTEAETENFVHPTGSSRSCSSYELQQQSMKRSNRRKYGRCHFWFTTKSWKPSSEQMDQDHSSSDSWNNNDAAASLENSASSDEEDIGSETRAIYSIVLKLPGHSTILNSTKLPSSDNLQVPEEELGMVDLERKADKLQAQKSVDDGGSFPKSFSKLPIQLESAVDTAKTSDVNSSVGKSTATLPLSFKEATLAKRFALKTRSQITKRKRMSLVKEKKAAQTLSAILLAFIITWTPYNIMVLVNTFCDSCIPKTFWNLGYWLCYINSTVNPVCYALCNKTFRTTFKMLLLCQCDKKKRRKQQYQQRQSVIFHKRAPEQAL

SMILES | Ki [1] [µM] | Ki [2] [µM] | IC50 [3] [µM]
CCN(CC)C(=O)c1cccc(C)c1 [DEET, N,N-Diethyl-3-methylbenzamide] | 370 ± 20 | 690 ± 190 | –
CNC(=O)Oc1ccccc1OC(C)C [propoxur, 2-isopropoxyphenylmethylcarbamate] | – | – | 0.02
